Assay results: PubChem BioAssay (NCI)
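The concentration for 50% growth inhibition is given as GI50. At the TGI there is no net growth.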

Columns and labels:
Assay in all cases: NCI anticancer screen, dose series, 384-well format
NCI-H460 NSCLC = system: NCI-H460 NSCLC
MDA-MB-468 breast = system: MDA-MB-468 breast
SR leukemia = system: SR leukemia
HT29 colon = system: HT29 colon
A549 NSCLC = system: A549 NSCLC
K-562 leukemia = system: K-562 leukemia
HS 578T breast = system: HS 578T breast
IGROV1 ovarian = system: IGROV1 ovarian
CAKI-1 renal = system: CAKI-1 renal
PC-3 prostate = system: PC-3 prostate
SF-295 CNS = system: SF-295 CNS
T-47D breast = system: T-47D breast
SK-MEL-5 melanoma = system: SK-MEL-5 melanoma
OVCAR-3 ovarian = system: OVCAR-3 ovarian
MCF7 breast = system: MCF7 breast
SK-MEL-2 melanoma = system: SK-MEL-2 melanoma
SNB-75 CNS = system: SNB-75 CNS
BT-549 breast = system: BT-549 breast
MDA-MB-435 melanoma = system: MDA-MB-435 melanoma
DU-145 prostate = system: DU-145 prostate
SW-620 colon = system: SW-620 colon
EKVX NSCLC = system: EKVX NSCLC
KM12 colon = system: KM12 colon
NCI-H23 lung = system: NCI-H23 lung
SN12C renal = system: SN12C renal
NCI-H322M lung = system: NCI-H322M lung
HOP-62 NSCLC = system: HOP-62 NSCLC
HCC-2998 colon = system: HCC-2998 colon
ACHN renal = system: ACHN renal
M14 melanoma = system: M14 melanoma
A498 renal = system: A498 renal
UACC-62 melanoma = system: UACC-62 melanoma
NCI/ADR-RES ovarian = system: NCI/ADR-RES ovarian
786-0 renal = system: 786-0 renal
TK-10 renal = system: TK-10 renal
MOLT-4 leukemia = system: MOLT-4 leukemia
HCT-15 colon = system: HCT-15 colon
NCI-H522 lung = system: NCI-H522 lung
OVCAR-8 ovarian = system: OVCAR-8 ovarian
COLO 205 colon = system: COLO 205 colon
SF-539 CNS = system: SF-539 CNS
UO-31 renal = system: UO-31 renal
SK-MEL-28 melanoma = system: SK-MEL-28 melanoma
MALME-3M melanoma = system: MALME-3M melanoma
SK-OV-3 ovarian = system: SK-OV-3 ovarian
RXF 393 renal = system: RXF 393 renal
LOX IMVI melanoma = system: LOX IMVI melanoma
OVCAR-5 ovarian = system: OVCAR-5 ovarian
SNB-19 CNS = system: SNB-19 CNS
CCRF-CEM leukemia = system: CCRF-CEM leukemia
U251 glioblastoma = system: U251 glioblastoma
HOP-92 NSCLC = system: HOP-92 NSCLC
OVCAR-4 ovarian = system: OVCAR-4 ovarian
HL-60(TB) leukemia = system: HL-60(TB) leukemia
MDA-MB-231 breast = system: MDA-MB-231 breast
SF-268 CNS = system: SF-268 CNS
RPMI-8226 leukemia = system: RPMI-8226 leukemia
NCI-H226 lung = system: NCI-H226 lung
UACC-257 melanoma = system: UACC-257 melanoma

In the case of `CC1(C)CC[C@H](Nc2ncc(C(F)(F)F)c(-c3c[nH]c4c(P(C)(C)=O)c(C#N)ccc34)n2)CN1`, the GI50 (NCI-H460 NSCLC) is reported as < 10 nM, the TGI (NCI-H460 NSCLC) is reported as < 10 nM and the GI50 (MDA-MB-468 breast) is reported as 1360 nM. The TGI (MDA-MB-468 breast) was 3010 nM, the GI50 (SR leukemia) was < 10 nM and the TGI (SR leukemia) was < 10 nM. The GI50 (HT29 colon) was 2060 nM, the TGI (HT29 colon) was 28300 nM and the GI50 (A549 NSCLC) was 66.3 nM. For the same molecule, the TGI (A549 NSCLC) was 12000 nM, the GI50 (K-562 leukemia) was < 10 nM and the TGI (K-562 leukemia) was 11200 nM. For the same molecule, the GI50 (HS 578T breast) was 301 nM, the TGI (HS 578T breast) was 1620 nM and the GI50 (IGROV1 ovarian) was < 10 nM. The TGI (IGROV1 ovarian) was 13800 nM, the GI50 (CAKI-1 renal) was 38.8 nM and the TGI (CAKI-1 renal) was 12300 nM. For the same molecule, the GI50 (PC-3 prostate) was < 10 nM, the TGI (PC-3 prostate) was 10800 nM and the GI50 (SF-295 CNS) was 67.5 nM. It also gave a TGI (SF-295 CNS) of 4570 nM, a GI50 (T-47D breast) of 994 nM and a TGI (T-47D breast) of 10200 nM. For the same molecule, the GI50 (SK-MEL-5 melanoma) was 43.8 nM, the TGI (SK-MEL-5 melanoma) was 1420 nM and the GI50 (OVCAR-3 ovarian) was < 10 nM. For the same molecule, the TGI (OVCAR-3 ovarian) was < 10 nM, the GI50 (MCF7 breast) was < 10 nM and the TGI (MCF7 breast) was 1450 nM. The GI50 (SK-MEL-2 melanoma) was 1220 nM, the TGI (SK-MEL-2 melanoma) was 3170 nM and the GI50 (SNB-75 CNS) was 1570 nM. For the same molecule, the TGI (SNB-75 CNS) was 3200 nM, the GI50 (BT-549 breast) was 11.3 nM and the TGI (BT-549 breast) was 205 nM. For the same molecule, the GI50 (MDA-MB-435 melanoma) was 114 nM, the TGI (MDA-MB-435 melanoma) was 2720 nM and the GI50 (DU-145 prostate) was < 10 nM. For the same molecule, the TGI (DU-145 prostate) was 3790 nM, the GI50 (SW-620 colon) was < 10 nM and the TGI (SW-620 colon) was 10200 nM. For the same molecule, the GI50 (EKVX NSCLC) was 361 nM, the TGI (EKVX NSCLC) was 3640 nM and the GI50 (KM12 colon) was < 10 nM. For the same molecule, the TGI (KM12 colon) was 1680 nM, the GI50 (NCI-H23 lung) was < 10 nM and the TGI (NCI-H23 lung) was 1470 nM. For the same molecule, the GI50 (SN12C renal) was < 10 nM, the TGI (SN12C renal) was 2870 nM and the GI50 (NCI-H322M lung) was 644 nM. For the same molecule, the TGI (NCI-H322M lung) was 3140 nM, the GI50 (HOP-62 NSCLC) was < 10 nM and the TGI (HOP-62 NSCLC) was 18.2 nM. The GI50 (HCC-2998 colon) was < 10 nM, the TGI (HCC-2998 colon) was 4210 nM and the GI50 (ACHN renal) was 73.6 nM. It also gave a TGI (ACHN renal) of 8680 nM, a GI50 (M14 melanoma) of 16.8 nM and a TGI (M14 melanoma) of 2210 nM. The GI50 (A498 renal) was 19.7 nM, the TGI (A498 renal) was 6540 nM and the GI50 (UACC-62 melanoma) was < 10 nM. It also gave a TGI (UACC-62 melanoma) of 30.9 nM, a GI50 (NCI/ADR-RES ovarian) of 2500 nM and a TGI (NCI/ADR-RES ovarian) of 12600 nM. The GI50 ([…]-0 renal) was < 10 nM, the TGI (786-0 renal) was 6180 nM and the GI50 (TK-10 renal) was 887 nM. For the same molecule, the TGI (TK-10 renal) was 10400 nM, the GI50 (MOLT-4 leukemia) was < 10 nM and the TGI (MOLT-4 leukemia) was < 10 nM. For the same molecule, the GI50 (HCT-15 colon) was 65.9 nM, the TGI (HCT-15 colon) was 4370 nM and the GI50 (NCI-H522 lung) was < 10 nM. For the same molecule, the TGI (NCI-H522 lung) was 2420 nM, the GI50 (OVCAR-8 ovarian) was 74.3 nM and the TGI (OVCAR-8 ovarian) was 6280 nM. For the same molecule, the GI50 (COLO 205 colon) was < 10 nM, the TGI (COLO 205 colon) was 1450 nM and the GI50 (SF-539 CNS) was < 10 nM. For the same molecule, the TGI (SF-539 CNS) was 1300 nM, the GI50 (UO-31 renal) was 335 nM and the TGI (UO-31 renal) was 8120 nM. For the same molecule, the GI50 (SK-MEL-28 melanoma) was < 10 nM, the TGI (SK-MEL-28 melanoma) was 1520 nM and the GI50 (MALME-3M melanoma) was 27.6 nM. For the same molecule, the TGI (MALME-3M melanoma) was 2420 nM, the GI50 (SK-OV-3 ovarian) was 1130 nM and the TGI (SK-OV-3 ovarian) was 6250 nM. For the same molecule, the GI50 (RXF 393 renal) was 1510 nM, the TGI (RXF 393 renal) was 2990 nM and the GI50 (LOX IMVI melanoma) was < 10 nM. It also gave a TGI (LOX IMVI melanoma) of 213 nM, a GI50 (OVCAR-5 ovarian) of 182 nM and a TGI (OVCAR-5 ovarian) of 9820 nM. The GI50 (SNB-19 CNS) was 1000 nM, the TGI (SNB-19 CNS) was 12800 nM and the GI50 (CCRF-CEM leukemia) was 54.6 nM. The TGI (CCRF-CEM leukemia) was 1360 nM, the GI50 (U251 glioblastoma) was 13.3 nM and the TGI (U251 glioblastoma) was 10400 nM. For the same molecule, the GI50 (HOP-92 NSCLC) was 2310 nM, the TGI (HOP-92 NSCLC) was 11600 nM and the GI50 (OVCAR-4 ovarian) was 21.3 nM. The TGI (OVCAR-4 ovarian) was 1420 nM, the GI50 (HL-60(TB) leukemia) was < 10 nM and the TGI (HL-60(TB) leukemia) was 126 nM. The GI50 (MDA-MB-231 breast) was 1190 nM, the TGI (MDA-MB-231 breast) was 10300 nM and the GI50 (SF-268 CNS) was 132 nM. For the same molecule, the TGI (SF-268 CNS) was 1990 nM, the GI50 (RPMI-8226 leukemia) was < 10 nM and the TGI (RPMI-8226 leukemia) was < 10 nM. It also gave a GI50 (NCI-H226 lung) of 577 nM, a TGI (NCI-H226 lung) of 12600 nM and a GI50 (UACC-257 melanoma) of 1020 nM. The TGI (UACC-257 melanoma) was 3450 nM.
